Earlier results as cited in article PMC3459150 (Atherosclerosis, 2012).

Columns and labels:
apoE null mice = details: chronic administration
[1] = apo E null mice
[2] = test system: dyslipidemic mouse models

Row | Sequence | Atheroprotection / inhibition of atherosclerosis (apoE null mice) | Half-time of clearance, rapid phase ([1]; intravenous, bi-phasic) [h] | Half-time of clearance, slow phase ([1]; intravenous, bi-phasic) [h] | Inhibition of atherosclerosis [2] | Plasma cholesterol levels [2] | Half-time of clearance ([1]; peritoneally-injected) [h]
1 | LRKLRKRLLRDWLKAFYDKVAEKLKEAF [Ac-hE18A-NH2] | inhibits atherosclerosis | 0.027 | 1.61 | – | – | –
2 | DWFKAFYDKVAEKFKEAF [4F] | – | – | – | able to inhibit atherosclerosis | without changing plasma cholesterol levels | 2.01
